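Exposure lasted 48 hours, with cells grown in 96-well plates and compounds tested at five concentrations. GI50: concentration for 50% inhibition of growth. TGI: concentration producing complete growth inhibition.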
How the values were obtained:
Experiment in all cases: NCI-60 cell line screen, 48 h
786-0 renal = tested on: 786-0 renal
A498 renal = tested on: A498 renal
A549 NSCLC = tested on: A549 NSCLC
ACHN renal = tested on: ACHN renal
BT-549 breast = tested on: BT-549 breast
CAKI-1 renal = tested on: CAKI-1 renal
CCRF-CEM leukemia = tested on: CCRF-CEM leukemia
COLO 205 colon = tested on: COLO 205 colon
DU-145 prostate = tested on: DU-145 prostate
EKVX NSCLC = tested on: EKVX NSCLC
HCC-2998 colon = tested on: HCC-2998 colon
HCT-116 colon = tested on: HCT-116 colon
HCT-15 colon = tested on: HCT-15 colon
HL-60(TB) leukemia = tested on: HL-60(TB) leukemia
HOP-62 NSCLC = tested on: HOP-62 NSCLC
HOP-92 NSCLC = tested on: HOP-92 NSCLC
HS 578T breast = tested on: HS 578T breast
HT29 colon = tested on: HT29 colon
IGROV1 ovarian = tested on: IGROV1 ovarian
K-562 leukemia = tested on: K-562 leukemia
KM12 colon = tested on: KM12 colon
LOX IMVI melanoma = tested on: LOX IMVI melanoma
M14 melanoma = tested on: M14 melanoma
MALME-3M melanoma = tested on: MALME-3M melanoma
MCF7 breast = tested on: MCF7 breast
MDA-MB-231 breast = tested on: MDA-MB-231 breast
MDA-MB-435 = tested on: MDA-MB-435
MOLT-4 leukemia = tested on: MOLT-4 leukemia
NCI-H226 lung = tested on: NCI-H226 lung
NCI-H460 lung = tested on: NCI-H460 lung
NCI-H522 lung = tested on: NCI-H522 lung
NCI/ADR-RES ovarian = tested on: NCI/ADR-RES ovarian
OVCAR-3 ovarian = tested on: OVCAR-3 ovarian
OVCAR-4 ovarian = tested on: OVCAR-4 ovarian
OVCAR-5 ovarian = tested on: OVCAR-5 ovarian
OVCAR-8 ovarian = tested on: OVCAR-8 ovarian
PC-3 prostate = tested on: PC-3 prostate
RPMI-8226 leukemia = tested on: RPMI-8226 leukemia
RXF 393 renal = tested on: RXF 393 renal
SF-268 CNS = tested on: SF-268 CNS
SF-295 CNS = tested on: SF-295 CNS
SF-539 CNS = tested on: SF-539 CNS
SK-MEL-2 melanoma = tested on: SK-MEL-2 melanoma
SK-MEL-28 melanoma = tested on: SK-MEL-28 melanoma
SK-MEL-5 melanoma = tested on: SK-MEL-5 melanoma
SK-OV-3 ovarian = tested on: SK-OV-3 ovarian
SN12C renal = tested on: SN12C renal
SNB-19 CNS = tested on: SNB-19 CNS
SNB-75 CNS = tested on: SNB-75 CNS
SR leukemia = tested on: SR leukemia
SW-620 colon = tested on: SW-620 colon
T-47D breast = tested on: T-47D breast
TK-10 renal = tested on: TK-10 renal
U251 CNS = tested on: U251 CNS
UACC-257 melanoma = tested on: UACC-257 melanoma
UACC-62 melanoma = tested on: UACC-62 melanoma
UO-31 renal = tested on: UO-31 renal

## CS(=O)c1nccc(-c2c(-c3ccc(F)c(OCc4ccc(F)cc4)c3)nc3sccn23)n1 (centres undefined)
786-0 renal
  GI50: > 100 µM
  TGI: > 100 µM
A498 renal
  GI50: > 100 µM
  TGI: > 100 µM
A549 NSCLC
  GI50: > 100 µM
  TGI: > 100 µM
ACHN renal
  GI50: 16.9 µM
  TGI: > 100 µM
BT-549 breast
  GI50: > 100 µM
  TGI: > 100 µM
CAKI-1 renal
  GI50: 18.4 µM
  TGI: 76.6 µM
CCRF-CEM leukemia
  GI50: 15.8 µM
  TGI: > 100 µM
COLO 205 colon
  GI50: > 100 µM
  TGI: > 100 µM
DU-145 prostate
  GI50: 3.72 µM
  TGI: 13.2 µM
EKVX NSCLC
  GI50: 16.3 µM
  TGI: 41.3 µM
HCC-2998 colon
  GI50: 10.2 µM
  TGI: 23.6 µM
HCT-116 colon
  GI50: 5.08 µM
  TGI: 20.8 µM
HCT-15 colon
  GI50: 16.3 µM
  TGI: > 100 µM
HL-60(TB) leukemia
  GI50: 3.54 µM
  TGI: 13.7 µM
HOP-62 NSCLC
  GI50: 17.7 µM
  TGI: 40.6 µM
HOP-92 NSCLC
  GI50: 5.76 µM
  TGI: 43.9 µM
HS 578T breast
  GI50: 73.1 µM
  TGI: > 100 µM
HT29 colon
  GI50: 22.3 µM
  TGI: > 100 µM
IGROV1 ovarian
  GI50: 4.14 µM
  TGI: 17.1 µM
K-562 leukemia
  GI50: 6.53 µM
  TGI: > 100 µM
KM12 colon
  GI50: 11.3 µM
  TGI: 31.6 µM
LOX IMVI melanoma
  GI50: 74.6 µM
  TGI: > 100 µM
M14 melanoma
  GI50: 35.1 µM
  TGI: > 100 µM
MALME-3M melanoma
  GI50: > 100 µM
  TGI: > 100 µM
MCF7 breast
  GI50: 2.18 µM
  TGI: 5.39 µM
MDA-MB-231 breast
  GI50: 26.8 µM
  TGI: > 100 µM
MDA-MB-435
  GI50: 47.8 µM
  TGI: > 100 µM
MOLT-4 leukemia
  GI50: 10.2 µM
  TGI: 90.2 µM
NCI-H226 lung
  GI50: > 100 µM
  TGI: > 100 µM
NCI-H460 lung
  GI50: 3.78 µM
  TGI: 14.3 µM
NCI-H522 lung
  GI50: 60.6 µM
  TGI: > 100 µM
NCI/ADR-RES ovarian
  GI50: > 100 µM
  TGI: > 100 µM
OVCAR-3 ovarian
  GI50: 2.84 µM
  TGI: 10.7 µM
OVCAR-4 ovarian
  GI50: 22.4 µM
  TGI: 74.1 µM
OVCAR-5 ovarian
  GI50: > 100 µM
  TGI: > 100 µM
OVCAR-8 ovarian
  GI50: 53.2 µM
  TGI: > 100 µM
PC-3 prostate
  GI50: 11.3 µM
  TGI: 34.1 µM
RPMI-8226 leukemia
  GI50: 6.55 µM
  TGI: 43.8 µM
RXF 393 renal
  GI50: 16.5 µM
  TGI: 63.8 µM
SF-268 CNS
  GI50: 19.5 µM
  TGI: 57.6 µM
SF-295 CNS
  GI50: > 100 µM
  TGI: > 100 µM
SF-539 CNS
  GI50: > 100 µM
  TGI: > 100 µM
SK-MEL-2 melanoma
  GI50: 71.8 µM
  TGI: > 100 µM
SK-MEL-28 melanoma
  GI50: 6.6 µM
  TGI: 21.5 µM
SK-MEL-5 melanoma
  GI50: 44 µM
  TGI: > 100 µM
SK-OV-3 ovarian
  GI50: > 100 µM
  TGI: > 100 µM
SN12C renal
  GI50: > 100 µM
  TGI: > 100 µM
SNB-19 CNS
  GI50: 14.9 µM
  TGI: 38.6 µM
SNB-75 CNS
  GI50: > 100 µM
  TGI: > 100 µM
SR leukemia
  GI50: 17.1 µM
  TGI: > 100 µM
SW-620 colon
  GI50: 27 µM
  TGI: > 100 µM
T-47D breast
  GI50: 2.64 µM
  TGI: 7 µM
TK-10 renal
  GI50: > 100 µM
  TGI: > 100 µM
U251 CNS
  GI50: > 100 µM
  TGI: > 100 µM
UACC-257 melanoma
  GI50: 15 µM
  TGI: 36.5 µM
UACC-62 melanoma
  GI50: 32.1 µM
  TGI: > 100 µM
UO-31 renal
  GI50: > 100 µM
  TGI: > 100 µM

From PubChem BioAssay (NCI)
